Measurements as given in article PMC10683025, “Discovery of a Hydroxylamine-Based Brain-Penetrant EGFR Inhibitor for Metastatic Non-Small-Cell Lung Cancer” (Journal of Medicinal Chemistry, 2023).

Columns and labels:
[1] = test system: Salmonella strains (TA98, TA100, TA1537, and TA1535); settings: ± rat liver S9, 4 strains; 9 valid up to 50 μM
Protocol: Compounds were assessed for mutagenicity at the Eurofins Panlabs in 384-well plates using four Salmonella strains: TA98, to probe for frameshift mutation (with quercetin as control), TA100 and TA1535, to probe for base pair insertions/deletions (with streptozotocin as control), and TA1537, to probe for frameshift mutations (with aminacridine as control) as previously described.[78] Each compound was incubated at 37 °C for 96 h at four different concentrations (5, 10, 50, and 100 μM), with each concentration tested using 48 replicates, both with and without rat liver S9 metabolic activation. A concurrent bacterial cytotoxicity assay was run at 0.6, 1.2, 2.5, 5, 10, 25, 50, and 100 μM to rule out false negatives. Bacterial cytotoxicity was expressed as percent of control growth (OD650). Compounds with growth of less than 60% control were flagged and considered bacterial cytotoxic. […] Significances of the positive counts between the treatment and control were determined using a one-tailed Fisher’s exact test.

[2] = target: T1, DRAK1 (Homo sapiens, UniProt Q9UEE5); test: KinaseProfiler enzymatic radiometric assay; type: biochemical; settings: read-out: Kinase IC50
T1 construct: purchased Eurofins DiscoverX (contract assay)
T1 sequence (Q9UEE5 1-414): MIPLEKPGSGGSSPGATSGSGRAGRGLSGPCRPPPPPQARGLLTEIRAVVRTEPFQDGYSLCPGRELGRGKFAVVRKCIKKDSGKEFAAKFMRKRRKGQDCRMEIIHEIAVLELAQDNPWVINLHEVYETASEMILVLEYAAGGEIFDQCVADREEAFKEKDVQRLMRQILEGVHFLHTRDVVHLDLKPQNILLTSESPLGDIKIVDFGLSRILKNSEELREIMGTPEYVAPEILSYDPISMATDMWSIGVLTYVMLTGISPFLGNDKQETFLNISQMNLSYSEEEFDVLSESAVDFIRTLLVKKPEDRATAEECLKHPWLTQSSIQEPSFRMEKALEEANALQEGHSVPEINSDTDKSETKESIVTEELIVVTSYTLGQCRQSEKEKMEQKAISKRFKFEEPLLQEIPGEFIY
Protocol: (§1) In vitro kinase activity (inhibitor binding constants (Kd) and biochemical inhibition (IC50’s)) were assessed by Eurofins DiscoverX (Kd determinations) and Eurofins Cerep (biochemical IC50 determinations).

[3] = target: T2, ERBB2 (Homo sapiens, UniProt P04626); test: KinaseProfiler enzymatic radiometric assay; type: biochemical; settings: read-out: Kinase IC50
T2 construct: purchased Eurofins DiscoverX (contract assay)
Protocol: as §1

[4] = test system: HER2+ breast cancer cell lines; test: CellTiter-Glo cell viability assay; type: cell-based; settings: Homo sapiens; range over cell lines; read-out: IC50's in HER2+ breast cancer cell lines
Protocol: The A431, HCC827, SK-BR-3, ZR-75–30, AU565, and Caco-2 cell lines were obtained from ATCC. The NCI-H1975 cell line was obtained from SIBS. The NCI-H3255 cell line was obtained from CoBioer. Engineered Ba/F3 cell lines were obtained from Crown Bioscience. MCKII-MDR1 cells were obtained from The Netherlands Cancer Institute. HEK293 cells were obtained from Invitrogen. A431 cells were cultured in DMEM (Life Technologies) with 10% FBS. HCC827, NCI-H1975, and AU565 cells were cultured in RPMI1640 (Invitrogen) with 10% FBS. NCI-H3255 cells were cultured in BEGM (Lonza) with 10% FBS. Ba/F3 EGFR-del E746_A750/C797S and Ba/F3 EGFR-L858R/C797S cells were cultured in RPMI (Invitrogen) with 10% FBS. SK-BR-3 cells were cultured in McCoy’s 5a (Invitrogen) with 10% FBS. ZR-75-30 cells were cultured in RPMI1640 (Invitrogen) with 20% FBS. Caco-2 and MCKII-MDR1 culture information is given in the Permeability Studies section. HEK293 cells were cultured in DMEM (Gibco) with 10% FBS, 0.1 mM NEAA, 25 mM HEPES, 100 U/mL penicillin-streptomycin, μg/mL blasticidin, and 400 μg/mL Geneticin. All cells were cultured in a humidified incubator with 5% CO2 at 37 °C.
Viability assays using A431, HCC827, NCI-H1975, NCI-H3255, Ba/F3 EGFR-del E746_A750/C797S, Ba/F3 EGFR-L858R/C797S, AU565, SK-BR-3, and ZR-75-30 cells were performed at Crown BioScience. Cells were plated into 96-well plates at 1500–7000 cells per well and dosed in triplicate (n = 3) in a nine-point, 4-fold dilution series with compounds (0.15 nM to 10 μM) in DMSO and incubated for 72 h. After 72 h, cell viability was assayed by CellTiter-Glo Luminescent Viability Assay (Promega). Dose–response curves were generated and used to calculate the IC50 values which were calculated on GraphPad Prism from the nonlinear regression equation fitted with a sigmoidal dose response and are presented as mean ± SEM.

[5] = target: T3, CYP3A4 (Homo sapiens, UniProt P08684); test: CYP450 inhibition in human liver microsomes; type: in vitro ADME; settings: midazolam
T3 construct: incubated with pooled human liver microsomes (0.5 mg/mL) (BD Gentest); tissue BD Gentest; host or cells: pooled human liver microsomes
Protocol: The activities tested were CYP1A2-mediated phenacetin O-demethylation, CYP2C19-mediated (S)-mephenyotin 4′-hydroxylation, CYP2C9-mediated diclofenac 4′-hydroxylation, CYP2D6-mediated dextromethorphan O-demethylation, and CYP3A4-mediated midazolam 1′-hydroxylation. […] The reactions were initiated by adding NADPH (1 mM final concentration) after a 5 min preincubation, and the assay was run in duplicate (n = 2). Samples were analyzed by ultra-performance liquid chromatography tandem mass spectrometry (UPLC-MS/MS).

[6] = target: T4, ABL1(F317L)-phosphorylated (Homo sapiens, UniProt P00519, F317L); test: KINOMEScan; type: binding; settings: read-out: Percent Control
T4 construct: purchased Eurofins DiscoverX
Text: (§2) Percent control was mapped onto the kinome tree using TREEspot.

[7] = target: T5, ACVR1 (Homo sapiens, UniProt Q04771); test: KINOMEScan; type: binding; settings: ACVR1, 1 µM; read-out: Percent Control
T5 construct: purchased Eurofins DiscoverX
Text: as §2

[8] = target: T6, ANKK1 (Homo sapiens, UniProt Q8NFD2); test: KINOMEScan; type: binding; settings: ANKK1, 1 µM; read-out: Percent Control
T6 construct: purchased Eurofins DiscoverX (KINOMEscan)
Text: as §2

[9] = target: T7, AURKC (Homo sapiens, UniProt Q9UQB9); test: KINOMEScan; type: binding; settings: read-out: Percent Control
T7 construct: purchased Eurofins DiscoverX (KINOMEscan)

[10] = target: T8, BRSK1 (Homo sapiens, UniProt Q8TDC3); test: KINOMEScan; type: binding; settings: BRSK1, 1 µM; read-out: Percent Control
T8 construct: purchased Eurofins DiscoverX (KINOMEscan)
Text: as §2

[11] = target: T9, BRSK2 (Homo sapiens, UniProt Q8IWQ3); test: KINOMEScan; type: binding; settings: BRSK2, 1 µM; read-out: Percent Control
T9 construct: purchased Eurofins DiscoverX (KINOMEscan)
Text: as §2

[12] = target: T10, WNK4 (Homo sapiens, UniProt Q96J92); test: KINOMEScan; type: binding; settings: WNK4, 1 µM; read-out: Percent Control
T10 construct: purchased Eurofins DiscoverX (KINOMEScan service)
Text: as §2

[13] = target: T11, YANK3 (Homo sapiens, UniProt Q86UX6); test: KINOMEScan; type: binding; settings: YANK3, 1 µM; read-out: Percent Control
T11 construct: purchased Eurofins DiscoverX (KINOMEScan service)

[14] = test system: panel of 468 kinases; test: KINOMEScan selectivity scores
Text: as §2

T2 sequence (P04626 23-1255): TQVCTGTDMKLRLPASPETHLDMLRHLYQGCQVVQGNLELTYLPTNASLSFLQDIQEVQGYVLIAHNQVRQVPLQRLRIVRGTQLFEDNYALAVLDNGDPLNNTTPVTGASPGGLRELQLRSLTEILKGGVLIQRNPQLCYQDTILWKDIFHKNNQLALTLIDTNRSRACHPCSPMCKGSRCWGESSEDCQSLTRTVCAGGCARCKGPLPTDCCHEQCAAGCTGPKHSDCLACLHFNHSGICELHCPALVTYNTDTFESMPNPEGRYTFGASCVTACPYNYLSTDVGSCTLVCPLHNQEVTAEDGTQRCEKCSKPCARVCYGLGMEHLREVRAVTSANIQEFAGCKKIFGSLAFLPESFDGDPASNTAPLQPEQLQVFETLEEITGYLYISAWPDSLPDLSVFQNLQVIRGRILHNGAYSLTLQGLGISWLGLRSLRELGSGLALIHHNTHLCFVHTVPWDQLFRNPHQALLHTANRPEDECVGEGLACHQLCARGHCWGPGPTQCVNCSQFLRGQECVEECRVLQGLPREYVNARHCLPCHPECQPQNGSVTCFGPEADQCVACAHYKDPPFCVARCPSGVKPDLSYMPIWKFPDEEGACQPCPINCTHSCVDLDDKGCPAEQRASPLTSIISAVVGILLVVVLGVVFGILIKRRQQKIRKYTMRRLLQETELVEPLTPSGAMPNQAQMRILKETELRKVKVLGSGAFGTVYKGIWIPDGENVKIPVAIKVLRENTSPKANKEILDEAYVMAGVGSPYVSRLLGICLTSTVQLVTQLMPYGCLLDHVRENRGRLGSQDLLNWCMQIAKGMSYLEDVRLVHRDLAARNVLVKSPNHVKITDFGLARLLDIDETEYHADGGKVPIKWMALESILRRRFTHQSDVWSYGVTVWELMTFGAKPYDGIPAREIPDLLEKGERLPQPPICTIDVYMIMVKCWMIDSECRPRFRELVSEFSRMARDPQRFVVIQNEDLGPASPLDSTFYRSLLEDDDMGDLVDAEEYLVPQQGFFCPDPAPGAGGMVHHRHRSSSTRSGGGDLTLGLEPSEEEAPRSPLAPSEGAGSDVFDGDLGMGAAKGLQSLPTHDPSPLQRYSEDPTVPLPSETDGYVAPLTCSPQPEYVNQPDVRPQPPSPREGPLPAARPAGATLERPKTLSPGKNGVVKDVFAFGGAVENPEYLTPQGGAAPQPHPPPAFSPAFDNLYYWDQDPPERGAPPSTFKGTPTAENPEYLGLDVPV
T8 sequence (Q8TDC3 whole entry): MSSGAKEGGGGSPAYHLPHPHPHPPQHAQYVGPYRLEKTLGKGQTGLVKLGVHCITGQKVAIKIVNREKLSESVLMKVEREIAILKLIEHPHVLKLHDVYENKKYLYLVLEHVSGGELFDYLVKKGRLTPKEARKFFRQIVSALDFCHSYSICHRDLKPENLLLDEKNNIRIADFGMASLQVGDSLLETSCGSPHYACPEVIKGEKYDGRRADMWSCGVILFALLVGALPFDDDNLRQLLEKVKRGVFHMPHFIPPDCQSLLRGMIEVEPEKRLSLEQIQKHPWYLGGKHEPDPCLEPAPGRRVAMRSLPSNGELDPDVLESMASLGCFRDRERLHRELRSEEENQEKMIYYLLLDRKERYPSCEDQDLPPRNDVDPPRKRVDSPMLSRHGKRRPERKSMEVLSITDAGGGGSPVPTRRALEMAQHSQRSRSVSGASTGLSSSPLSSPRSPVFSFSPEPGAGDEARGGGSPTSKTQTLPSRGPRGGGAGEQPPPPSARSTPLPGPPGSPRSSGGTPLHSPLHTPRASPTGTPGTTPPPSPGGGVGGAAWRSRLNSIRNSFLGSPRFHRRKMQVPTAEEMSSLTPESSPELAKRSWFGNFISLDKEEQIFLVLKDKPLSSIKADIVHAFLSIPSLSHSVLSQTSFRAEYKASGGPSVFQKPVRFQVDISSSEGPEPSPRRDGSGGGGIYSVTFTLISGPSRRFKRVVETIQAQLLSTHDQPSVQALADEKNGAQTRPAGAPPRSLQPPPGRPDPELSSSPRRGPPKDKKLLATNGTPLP
T5 sequence (Q04771 21-509): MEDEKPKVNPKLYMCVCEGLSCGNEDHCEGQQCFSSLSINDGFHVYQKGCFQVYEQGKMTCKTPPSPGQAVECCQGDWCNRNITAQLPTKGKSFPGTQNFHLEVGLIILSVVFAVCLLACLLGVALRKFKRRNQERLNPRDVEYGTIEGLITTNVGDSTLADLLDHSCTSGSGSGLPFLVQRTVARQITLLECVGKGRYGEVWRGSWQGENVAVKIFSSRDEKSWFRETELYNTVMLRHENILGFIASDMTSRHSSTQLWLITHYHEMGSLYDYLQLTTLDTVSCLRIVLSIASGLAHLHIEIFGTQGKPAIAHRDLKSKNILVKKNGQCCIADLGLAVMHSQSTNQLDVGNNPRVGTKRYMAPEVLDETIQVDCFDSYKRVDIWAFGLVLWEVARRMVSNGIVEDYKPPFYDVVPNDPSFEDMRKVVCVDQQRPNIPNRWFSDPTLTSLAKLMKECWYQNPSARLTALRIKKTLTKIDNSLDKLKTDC
T6 sequence (Q8NFD2 whole entry): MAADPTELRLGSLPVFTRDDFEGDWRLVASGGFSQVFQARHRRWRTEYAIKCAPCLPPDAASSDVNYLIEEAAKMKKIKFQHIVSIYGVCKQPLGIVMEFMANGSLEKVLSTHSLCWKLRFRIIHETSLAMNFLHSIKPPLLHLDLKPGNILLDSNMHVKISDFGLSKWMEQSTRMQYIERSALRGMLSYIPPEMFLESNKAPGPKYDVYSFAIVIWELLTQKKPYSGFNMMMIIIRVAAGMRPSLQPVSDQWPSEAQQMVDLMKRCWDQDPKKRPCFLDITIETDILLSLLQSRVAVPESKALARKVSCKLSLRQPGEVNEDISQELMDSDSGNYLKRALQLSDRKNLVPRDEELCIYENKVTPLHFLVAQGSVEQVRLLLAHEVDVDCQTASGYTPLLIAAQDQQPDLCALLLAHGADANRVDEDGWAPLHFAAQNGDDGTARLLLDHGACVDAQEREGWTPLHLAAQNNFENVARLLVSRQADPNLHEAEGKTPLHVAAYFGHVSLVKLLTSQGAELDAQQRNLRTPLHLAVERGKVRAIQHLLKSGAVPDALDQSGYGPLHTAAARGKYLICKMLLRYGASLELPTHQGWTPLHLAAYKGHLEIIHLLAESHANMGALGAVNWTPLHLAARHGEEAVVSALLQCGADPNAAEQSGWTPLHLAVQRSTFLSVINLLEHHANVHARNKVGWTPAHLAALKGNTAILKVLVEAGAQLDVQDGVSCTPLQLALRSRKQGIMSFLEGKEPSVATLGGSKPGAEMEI
T9 sequence (Q8IWQ3 whole entry): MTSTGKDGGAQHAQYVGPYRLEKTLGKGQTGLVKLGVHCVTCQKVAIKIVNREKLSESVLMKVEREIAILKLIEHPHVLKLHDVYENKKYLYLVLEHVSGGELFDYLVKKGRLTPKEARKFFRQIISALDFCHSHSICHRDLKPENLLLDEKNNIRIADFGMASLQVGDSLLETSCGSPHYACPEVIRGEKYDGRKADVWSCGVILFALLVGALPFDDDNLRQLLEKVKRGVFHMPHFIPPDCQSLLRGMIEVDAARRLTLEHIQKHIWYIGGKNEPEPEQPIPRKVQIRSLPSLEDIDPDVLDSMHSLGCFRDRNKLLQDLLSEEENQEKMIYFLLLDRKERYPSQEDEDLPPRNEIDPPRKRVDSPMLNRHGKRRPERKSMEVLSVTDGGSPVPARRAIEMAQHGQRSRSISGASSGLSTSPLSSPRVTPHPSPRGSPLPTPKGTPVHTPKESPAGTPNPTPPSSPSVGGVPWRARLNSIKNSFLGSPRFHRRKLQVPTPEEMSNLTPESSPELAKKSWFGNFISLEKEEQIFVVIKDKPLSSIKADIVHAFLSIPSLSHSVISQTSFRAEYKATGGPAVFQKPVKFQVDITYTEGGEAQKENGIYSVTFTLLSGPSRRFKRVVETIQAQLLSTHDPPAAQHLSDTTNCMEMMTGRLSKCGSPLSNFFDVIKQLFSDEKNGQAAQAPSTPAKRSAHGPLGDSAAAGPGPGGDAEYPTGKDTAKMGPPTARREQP
T7 sequence (Q9UQB9 whole entry): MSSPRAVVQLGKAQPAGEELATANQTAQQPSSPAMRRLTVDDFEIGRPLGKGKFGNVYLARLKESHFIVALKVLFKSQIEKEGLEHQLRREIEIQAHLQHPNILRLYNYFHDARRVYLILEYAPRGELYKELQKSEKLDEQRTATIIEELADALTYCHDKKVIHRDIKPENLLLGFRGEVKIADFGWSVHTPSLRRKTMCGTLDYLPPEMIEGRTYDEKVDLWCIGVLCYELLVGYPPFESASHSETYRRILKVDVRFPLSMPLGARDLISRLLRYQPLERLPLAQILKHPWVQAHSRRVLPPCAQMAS
T11 sequence (Q86UX6 whole entry): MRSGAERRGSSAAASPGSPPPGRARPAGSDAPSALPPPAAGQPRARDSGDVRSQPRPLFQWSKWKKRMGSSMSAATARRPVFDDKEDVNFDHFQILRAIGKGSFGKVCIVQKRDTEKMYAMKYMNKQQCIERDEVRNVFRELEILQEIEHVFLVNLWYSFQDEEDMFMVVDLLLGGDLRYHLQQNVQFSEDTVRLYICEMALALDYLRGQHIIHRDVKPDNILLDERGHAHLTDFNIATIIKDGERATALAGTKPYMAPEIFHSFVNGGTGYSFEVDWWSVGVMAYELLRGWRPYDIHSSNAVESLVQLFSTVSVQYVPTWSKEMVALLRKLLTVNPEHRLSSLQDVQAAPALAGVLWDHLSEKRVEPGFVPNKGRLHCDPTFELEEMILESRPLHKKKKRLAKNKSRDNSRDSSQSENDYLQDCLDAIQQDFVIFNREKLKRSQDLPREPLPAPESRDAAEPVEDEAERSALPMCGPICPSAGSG

Row | SMILES | AMES [1] | IC50 [2] | IC50 [3] | IC50 [4] | IC50 [5] | remaining binding at 1 µM [6] | remaining binding at 1 µM [7] | remaining binding at 1 µM [8] | remaining binding at 1 µM [9] | remaining binding at 1 µM [10] | remaining binding at 1 µM [11] | remaining binding at 1 µM [12] | remaining binding at 1 µM [13] | Number of Hits S(1) ([14]; percent control < 1, of 403) | Number of Hits S(10) ([14]; percent control < 10, of 403) | Number of Hits S(35) ([14]; percent control < 35, of 403)
1 | COc1cc2ncnc(Nc3cccc(Cl)c3F)c2cc1OCCON1CCOCC1 [Compound 7, N-(3-Chloro-2-fluorophenyl)-7-methoxy-6-(2-(morpholinooxy)ethoxy)quinazolin-4-amine] | Negative | – | – | – | – | – | – | – | – | – | – | – | – | – | – | –
2 | COc1cc2ncnc(Nc3cccc(Cl)c3F)c2cc1OCCON1CCN(C)CC1 [Compound 9, N-(3-Chloro-2-fluorophenyl)-7-methoxy-6-(2-((4-methylpiperazin-1-yl)oxy)ethoxy)quinazolin-4-amine] | – | 1030 nM | 12 nM | 990 to 1600 nM | > 30 µM | 4% | 100% | 97% | 82% | 100% | 74% | 95% | 86% | 2 | 6 | 12
